The values that follow come from PubChem BioAssay (NCI).

Among the test systems are XF 498 CNS; P388 leukemia; SNB-78 CNS; DLD-1 colon; P388/ADR leukemia; SN12K1 renal; HOP-18 NSCLC; RXF-631 renal; DMS 273 small cell lung; KM20L2 colon; LXFL 529 NSCLC.
Holding throughout (test): NCI tumour cell line growth inhibition, 48 h

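Cells were grown in 96-well plates and exposed to each compound for 48 hours at five concentrations; endpoints were interpolated linearly between bracketing concentrations, or set to the highest concentration if not reached. GI50: concentration for 50% inhibition of growth. The concentration for full growth arrest is given as TGI.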 Bounds are passed on as bounds.

`Cc1ccc(N2C(=O)C3CSCN3C2=O)cc1` (stereo unspecified): the TGI with XF 498 CNS, in the assay on P388 leukemia, in the assay on SNB-78 CNS, in the assay on DLD-1 colon, in the assay with P388/ADR leukemia and in the assay on SN12K1 renal was above 100 µM in each case. The same molecule registered a TGI with HOP-18 NSCLC above 100 µM. In addition, the GI50 in the assay with SNB-78 CNS is above 100 µM.

As to `CCC1=C(C[C@H]2NCCc3cc(OC)c(OC)cc32)C[C@H]2c3cc(OC)c(OC)cc3CCN2C1`, the TGI came out at 1.43 µM in the assay on RXF-631 renal; 1.32 µM in the assay on SNB-78 CNS; 0.109 µM in the assay with DMS 273 small cell lung; 0.349 µM in the assay on DLD-1 colon; 0.14 µM in the assay on KM20L2 colon; 6.4 µM in the assay on LXFL 529 NSCLC. Also, the TGI in the assay on HOP-18 NSCLC was above 100 µM.

As to `Cc1cc2c(=O)c3ccc(Cl)cc3[nH]c2c(C(N)=O)c1C`, the TGI with XF 498 CNS, in the assay with RXF-631 renal, in the assay with SNB-78 CNS, in the assay on DMS 273 small cell lung, with DLD-1 colon and in the assay on KM20L2 colon was above 100 µM each time. In the assay on LXFL 529 NSCLC, this molecule showed a TGI above 100 µM.

Consider `Cc1cc(=O)[nH]c(NNC(C#N)c2ccccc2O)n1` (stereo unspecified), for which the TGI in the assay with DMS 273 small cell lung, with DLD-1 colon, in the assay on KM20L2 colon and in the assay on HOP-18 NSCLC was above 100 µM throughout.

Regarding `O=C(c1ccccc1)c1nnn(Cc2ccccc2Cn2nnc(C(=O)c3ccccc3)c2C(=O)c2ccccc2)c1C(=O)c1ccccc1`, the TGI in the assay on SNB-78 CNS, with DMS 273 small cell lung, in the assay with DLD-1 colon, with KM20L2 colon, with LXFL 529 NSCLC and in the assay with HOP-18 NSCLC was above 100 µM each time.

Regarding `O=C1c2ccncc2C(=O)c2c(O)ccc(O)c21`, the TGI turned out to be 15.2 µM in the assay on XF 498 CNS, 8.12 µM in the assay on KM20L2 colon, 22 µM in the assay on LXFL 529 NSCLC and 25.5 µM in the assay with HOP-18 NSCLC.
